{"source": "patent US9346820B2", "about": "“HIV-1 protease inhibitors having gem-di-fluoro bicyclic P2-ligands” (priority 2013, dated 2016)", "key": {"HIV-1MDR/JSL": {"test_system": "HIV-1MDR/JSL", "test": "microbe, parasite or virus in culture", "assay_type": "cell-based", "conditions": "for EC50: Human immunodeficiency virus 1, read-out: EC50 HIV-1MDR/JSL (R5)", "procedure": "(§1) All primary HIV-1 strains were passaged once or twice in 3-day-old phytohemagglutinin activated peripheral blood mononuclear cells (PHA-PBM), and the culture supernatants were stored at −80° C. until use.\n(§2) The susceptibility of HIV-1LAI to various drugs was determined as previously described with minor modifications. Briefly, MT-2 cells (10^4/ml) were exposed to 100 50% tissue culture infectious doses (TCID50) of HIV-1LAI in the presence or absence of various concentrations of drugs in 96-well microculture plates and were incubated at 37° C. for 7 days. After 100 μl of the medium was removed from each well, 3-(4,5-dimetylthiazol-2-yl)-2,5-diphenyltetrazolium bromide (MTT) solution (10 μl, 7.5 mg/ml in phosphate-buffered saline) was added to each well in the plate, followed by incubation at 37° C. for 2 h. […] All assays were performed in duplicate or triplicate. […] To determine the sensitivity of primary HIV-1 isolates to drugs, phytohemagglutinin-stimulated peripheral blood mononuclear cells (PHA-PBMC) (10^6/ml) were exposed to 50 TCID50 of each primary HIV-1 isolate and cultured in the presence or absence of various concentrations of drugs in 10-fold serial dilutions in 96-well microculture plates. In determining the drug susceptibility of certain laboratory HIV-1 strains, MT-4 cells were employed as target cells as previously described with minor modifications. In brief, MT-4 cells (10^5/ml) were exposed to 100 TCID50 of drug-resistant HIV-1 strains in the presence or absence of various concentrations of drugs and were incubated at 37° C. On day 7 of culture, the supernatants were harvested and the amounts of p24 Gag protein were determined by using a fully automated chemiluminescent enzyme immunoassay system (Lumipulse F: Fujirebio Inc., Tokyo). […] All assays were performed in duplicate or triplicate. PHA-PBMs were derived from a single donor in each independent experiment. Thus, for obtaining the data, three different donors were recruited."}, "HIV-1MDR/MM": {"test_system": "HIV-1MDR/MM", "test": "microbe, parasite or virus in culture", "assay_type": "cell-based", "conditions": "for EC50: Human immunodeficiency virus 1, read-out: EC50 HIV-1MDR/MM (R5)", "procedure": "as §1, §2"}, "HIV-1MDR/G": {"test_system": "HIV-1MDR/G", "test": "microbe, parasite or virus in culture", "assay_type": "cell-based", "conditions": "for EC50: Human immunodeficiency virus 1, read-out: EC50 HIV-1MDR/G (X4)", "procedure": "as §1, §2"}, "HIV-1MDR/TM": {"test_system": "HIV-1MDR/TM", "test": "microbe, parasite or virus in culture", "assay_type": "cell-based", "conditions": "for EC50: Human immunodeficiency virus 1, read-out: EC50 HIV-1MDR/TM (X4)", "procedure": "as §1, §2"}, "HIV-1GRL04810^RP18": {"test_system": "HIV-1GRL04810^RP18", "test": "microbe, parasite or virus in culture", "assay_type": "cell-based", "conditions": "for EC50: Human immunodeficiency virus 1, MT4, read-out: EC50 HIV-1GRL04810^RP18", "procedure": "as §2\n(§3) The amounts of p24 were measured every two days for up to 7 days."}, "HIV-1GRL05010^RP10": {"test_system": "HIV-1GRL05010^RP10", "test": "microbe, parasite or virus in culture", "assay_type": "cell-based", "conditions": "for EC50: Human immunodeficiency virus 1, MT4, read-out: EC50 HIV-1GRL05010^RP10", "procedure": "as §2, §3"}, "[1]": {"test": "Partition and distribution coefficients, shake-flask method", "assay_type": "physicochemical", "procedure": "On day −1 of the experimental setting, saturation of 1-octanol (CH3 (CH2)6CH2OH) (Nacalai Tesque, Kyoto, Japan) water and tris-buffered saline (10X working solution 20 mM Tris, pH 7.4 and 0.9% NaCl, Sigma-Aldrich, St. Louis, Mo.) took place. Four different flasks were used: One containing 50 ml of water plus 100 ml of 1-octanol, the second flask contained 1-octanol saturated with water adding 50 ml of 1-octanol and 100 ml of water. The same ratios and volumes were kept for 1-octanol saturated with tris-buffer and tris-buffer saturated with 1-octanol. The flasks were sealed and placed into a room temperature bio shaker for 24 hours at 90 revolutions per minute. […] Successive dilutions were made to obtain concentrations of 10 μM, 1 μM and 0.1 μM. A standard curve was generated on a light spectrophotometer (DU Series 700, Beckman Coulter Fullerton, Calif.) at 230 nanometer absorbances.\nOn day 1 of the experiment, the lipid and liquid interfaces were separated, and compounds were diluted again from 20 mM DMSO to 100 μM using the 1-octanol, water and Tris-buffered saline obtained from the shake-flask assay. The resulting diluted compounds were then added to separate serum tubes containing equal proportions of 1-octanol and water, and 1-octanol and Tris-buffered saline. The solution was handshaken for 5 minutes and then centrifuged at 3,500 rpm and room temperature for 20 minutes. Finally, the compounds were recovered from the 1-octanol, Tris-buffer and water interfaces and then measured on a light spectrophotometer.\nThe values for logP and logD were obtained by applying the following mathematical formulas: […]\nThe addition of fluorine atoms is generally expected to confer greater lipophilicity on nucleoside analogs and certain compounds (37-39). […] 1-Octanol, organic alcohol, and water were used for logP determination, while tris-buffered saline (pH 7.4) and water were utilized for logD determination. Prior to obtaining the actual values, a standard curve was generated as a reference and drug concentrations attained for each compartment (1-octanol, water and tris-buffered saline) were measured on a light spectrophotometer (at 230 nanometer absorbance) as previously described by Rak et al. (40).\nDRV was used as a control. N-octanol, an organic alcohol, and water were used for logP determination, while tris buffer and water were utilized for the logD assay. Prior to the retrieval of actual values a standard curve was generated as a reference. The drug concentrations for each compartment (octanol, water and tris buffer) were measured at 230 nanometer absorbances using a light spectrophotometer. Assay was performed following the OECD guidelines for testing of chemicals “Partition coefficient (n-octanol-water): shake flask method”, adopted by the council on 27 Jul. 1995.^(a) n-octanol used for logPOW determination;^(b) n-octanol used for logD assay. The formulas"}, "HIV-1MDR/B": {"test_system": "HIV-1MDR/B", "test": "microbe, parasite or virus in culture", "assay_type": "cell-based", "procedure": "as §1, §2"}, "HIV-1LAI": {"test_system": "HIV-1LAI", "test": "Antiviral activity of brain-side medium from the BBB assay, MTT assay in MT-2 cells", "assay_type": "cell-based", "procedure": "The “brain-side” of the medium containing a compound collected in the BBB in vitro assay, was subjected to antiviral assays. Two HIV-1 isolates were employed, HIV-1LAI (Panel A) and HIV-1ERS104pre (Panel B). […] Dilution ranges were between 10-fold and 10,000-fold, and the percentage of viral inhibition was used as an endpoint. […] Assays were conducted in duplicate and error bars show standard deviations.\nThe assay was carried out using 10, 100, 1000 and 10000 times-diluted brain-side stocks of compounds."}}, "note": "Read-outs that look alike come from different tables or passages of the source.", "data": [{"smiles": "CC(C)CN(C[C@@H](O)[C@H](Cc1ccccc1)NC(=O)O[C@H]1CO[C@H]2OCC[C@H]21)S(=O)(=O)c1ccc(N)cc1", "note": "[DRV, darunavir]", "values": [{"measurement": "EC50", "setting": "HIV-1MDR/JSL", "value": 25, "unit": "nM"}, {"measurement": "EC50", "setting": "HIV-1MDR/MM", "value": 10, "unit": "nM"}, {"measurement": "EC50", "setting": "HIV-1MDR/G", "value": 14, "unit": "nM"}, {"measurement": "EC50", "setting": "HIV-1MDR/TM", "value": 30, "unit": "nM"}, {"measurement": "EC50", "setting": "HIV-1GRL04810^RP18", "value": 41, "unit": "nM"}, {"measurement": "EC50", "setting": "HIV-1GRL05010^RP10", "value": 37, "unit": "nM"}, {"measurement": "Log POW (Octanol/Water)", "setting": "[1]; shake flask method", "value": "−0.63"}]}, {"smiles": "CC(C)CN(C[C@@H](O)[C@H](Cc1ccccc1)NC(=O)O[C@H]1CO[C@H]2OCC(F)(F)[C@H]21)S(=O)(=O)c1ccc(N)cc1", "note": "[GRL-05010]", "values": [{"measurement": "EC50", "setting": "HIV-1MDR/JSL", "value": 20, "unit": "nM"}, {"measurement": "fold change of EC50 HIV-1MDR/JSL vs HIV-1ERS104pre", "setting": "HIV-1MDR/JSL; number in parentheses", "value": 7, "unit": "fold"}, {"measurement": "EC50", "setting": "HIV-1MDR/B; Human immunodeficiency virus 1, read-out: EC50 HIV-1MDR/B (X4)", "value": 11, "unit": "nM"}, {"measurement": "fold change of EC50 HIV-1MDR/B vs HIV-1ERS104pre", "setting": "HIV-1MDR/B; number in parentheses", "value": 3, "unit": "fold"}, {"measurement": "EC50", "setting": "HIV-1MDR/MM", "value": 3, "unit": "nM"}, {"measurement": "fold change of EC50 HIV-1MDR/MM vs HIV-1ERS104pre", "setting": "HIV-1MDR/MM; number in parentheses", "value": 1, "unit": "fold"}, {"measurement": "EC50", "setting": "HIV-1MDR/G", "value": 4, "unit": "nM"}, {"measurement": "fold change of EC50 HIV-1MDR/G vs HIV-1ERS104pre", "setting": "HIV-1MDR/G; number in parentheses", "value": 1, "unit": "fold"}, {"measurement": "EC50", "setting": "HIV-1MDR/TM", "value": 4, "unit": "nM"}, {"measurement": "fold change of EC50 HIV-1MDR/TM vs HIV-1ERS104pre", "setting": "HIV-1MDR/TM; number in parentheses", "value": 2, "unit": "fold"}, {"measurement": "EC50", "setting": "HIV-1GRL04810^RP18", "value": 39, "unit": "nM"}, {"measurement": "fold change of EC50 HIV-1GRL04810^RP18 vs HIV-1NL4-3", "setting": "HIV-1GRL04810^RP18; number in parentheses", "value": 13, "unit": "fold"}, {"measurement": "EC50", "setting": "HIV-1GRL05010^RP10", "value": 36, "unit": "nM"}, {"measurement": "fold change of EC50 HIV-1GRL05010^RP10 vs HIV-1NL4-3", "setting": "HIV-1GRL05010^RP10; number in parentheses", "value": 10, "unit": "fold"}, {"measurement": "suppression of HIV-1LAI replication", "setting": "HIV-1LAI; 10-fold diluted brain-side medium", "value": 91, "unit": "%"}, {"measurement": "suppression of HIV-1LAI replication", "setting": "HIV-1LAI; 100-fold diluted brain-side medium", "value": 73, "unit": "%"}, {"measurement": "Log POW (Octanol/Water)", "setting": "[1]", "value": "−0.83"}, {"measurement": "Concentration in octanol^(b)", "setting": "[1]; n-octanol used for logD assay", "value": 14.09, "unit": "µM"}, {"measurement": "Concentration in octanol^(a)", "setting": "[1]; n-octanol used for logPOW determination", "value": 18.70, "unit": "µM"}, {"measurement": "Log DOct/Tris pH 7.40", "setting": "[1]; pH 7.4", "value": "−1.01"}, {"measurement": "Concentration in tris buffer", "setting": "[1]; shake flask, 100 μM, 230 nm", "value": 49.84, "unit": "µM"}, {"measurement": "Concentration in water", "setting": "[1]; shake flask, 100 μM, 230 nm", "value": 94.55, "unit": "µM"}]}]}
